The subject of one data set is BMDM. Put plainly: Cholesterol efflux assay. Type of data set: cell-based, mouse. To be noted: AMG-18 5 μM 1 hour pre-treatment; APOA1 25 μg/ml or HDL 50 μg/ml acceptors, 6 hours. As to the method:
FIGS. 2A-2M depict that FMRP deficiency enhances RCT while reducing foam cell formation in vivo. (Data are mean±SEM. Unpaired t-test with Welch's correction. * P≤0.05, ** P≤0.01, *** P≤0.001.) • 2A. Fmr1^+/+ and Fmr1^−/− mice were injected with AAV_PCSK9 and fed with 16 weeks of WD. Residential PM were stained with Oil Red O (ORO) and imaged (n=7; Scale bar=50 μm). • 2B. Apoe-/mice were fed with WD (12 weeks) and injected with vehicle (DMSO) or AMG-18 (30 mg/kg/day) in the last 4 weeks of WD. Residential PM were stained with ORO and imaged (n=5; Scale bar=50 μm). • 2C-2E. […] Macrophages were pre-loaded with fluorescently labeled cholesterol (16 hours) followed by incubation in efflux medium including APOA1 (25 μg/ml) or HDL (50 μg/ml) as acceptors for 6 hours. % Efflux was calculated as cholesterol signal in medium/cholesterol signal in medium and cell: Cholesterol efflux in (2F) Fmr1+/+ and Fmr1^−/− BMDM (n=4) and in (2G) BMDM that were pre-treated either with DMSO or AMG-18 (5 μM; 1 hour) (n=4). • 2H-2K. […] Protein lysates from macrophages used in FIG. 2C were analyzed by western blotting using specific antibodies for FMRP and β-Actin. • 2M. […]

A further data set relates to BMDMs. Put plainly: Apoptosis detection by flow cytometry (PI). Type of data set: cell-based, mouse. The settings on record: AMG-18 10 μM 1 hour pre-treatment, PA 12 hours. The source says: FIGS. 5K-5T depict: (Data are mean #SEM; Mann Whitney U test. * P≤0.05, ** P≤0.01, *** P≤0.001) • 5K. The ratio of mouse weight at the beginning of the experiment over the weight at the end of the experiment in FIG. 5A (n=12-13); and plasma measurements for glucose (n=12-13), cholesterol (n=12-13) and lipoproteins (n=4), respectively, from mice in FIG. 5A. • 5L. Abundance of B cells, T cells and monocytes in the peripheral blood as % of total CD45+ cells from the Fmr1^+/+ and Fmr1^−/− mice in FIG. 5A (n=12-13) . • 5M. Macrophage area was calculated from MOMA-2 (red)-stained aortic root sections as % of MOMA2^+ stained area to total plaque area (n=8; Scale bar=100 μm). • 5N. Apoptosis was calculated from the number of TUNEL^+ cells (green) in the MOMA-2-stained (red) plaque area (n=8; Scale bar=100 μm). • 5O. Fmr1^+/+ and Fmr1^−/− BMDMs or AMG-18 pre-treated cells (10 μM, 1 hour) were treated with PA ([…]) treatment for 12 hours and then stained with Propidium iodide (PI) (n=5). • 5P. % Smooth muscle actin (α-SMA) was calculated from aortic root sections stained with a-SMA (green) as % α-SMA^+ area to the total plaque area (n=8, Scale bar 100 μm). • 5Q. % collagen area was calculated from Masson's Trichrome staining as the percentage of collagen (blue) area in total plaque area (n=8; Scale bar=100 μm). • 5R. […]
For orientation: In flow cytometry, cells or beads pass a laser one at a time.

Structures are written as SMILES.

For `Cc1ccc2c(NS(=O)(=O)c3ccccc3Cl)cccc2c1Oc1ncccc1-c1ccnc(N[C@H]2CCCNC2)n1` [AMG-18], in the data set with BMDM, the cholesterol efflux result was “enhanced”. For the same compound, the “apoptosis (PI staining)” value in the data set with BMDMs is reported as “no significant change”.

Source of the values: patent publication US20250134889A1, “TARGETING IRE1 KINASE AND FMRP FOR PROPHYLAXIS, MANAGEMENT AND TREATMENT OF ATHEROSCLEROSIS” (CEDARS-SINAI MEDICAL CENTER, priority 2022, published 2025).
